Structures are written as SMILES. Calls of active or inactive are those of the source. Bounds are passed on as bounds.

A short description of assay [1]: viability of uninfected HEp-2 cells – cell-based, HTS, cytotoxicity control for RSV inhibitor project, dose response (AID 2410). Format: functional. Particulars: human respiratory syncytial virus.
For assay [2], the system named is HEK293. The assay can be described thus: membrane integrity loss in HEK cells – cell-based, fluorescence, cytotoxicity control for IDE activator project, dose response (AID 588440).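 Further: cytotoxicity by LDH release measuring loss of membrane integrity.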 The format is functional. Particulars: Homo sapiens.
Assay [3] concerns the target T1, Insulin-degrading enzyme (Homo sapiens, UniProt P14735).
T1 sequence (P14735 whole entry): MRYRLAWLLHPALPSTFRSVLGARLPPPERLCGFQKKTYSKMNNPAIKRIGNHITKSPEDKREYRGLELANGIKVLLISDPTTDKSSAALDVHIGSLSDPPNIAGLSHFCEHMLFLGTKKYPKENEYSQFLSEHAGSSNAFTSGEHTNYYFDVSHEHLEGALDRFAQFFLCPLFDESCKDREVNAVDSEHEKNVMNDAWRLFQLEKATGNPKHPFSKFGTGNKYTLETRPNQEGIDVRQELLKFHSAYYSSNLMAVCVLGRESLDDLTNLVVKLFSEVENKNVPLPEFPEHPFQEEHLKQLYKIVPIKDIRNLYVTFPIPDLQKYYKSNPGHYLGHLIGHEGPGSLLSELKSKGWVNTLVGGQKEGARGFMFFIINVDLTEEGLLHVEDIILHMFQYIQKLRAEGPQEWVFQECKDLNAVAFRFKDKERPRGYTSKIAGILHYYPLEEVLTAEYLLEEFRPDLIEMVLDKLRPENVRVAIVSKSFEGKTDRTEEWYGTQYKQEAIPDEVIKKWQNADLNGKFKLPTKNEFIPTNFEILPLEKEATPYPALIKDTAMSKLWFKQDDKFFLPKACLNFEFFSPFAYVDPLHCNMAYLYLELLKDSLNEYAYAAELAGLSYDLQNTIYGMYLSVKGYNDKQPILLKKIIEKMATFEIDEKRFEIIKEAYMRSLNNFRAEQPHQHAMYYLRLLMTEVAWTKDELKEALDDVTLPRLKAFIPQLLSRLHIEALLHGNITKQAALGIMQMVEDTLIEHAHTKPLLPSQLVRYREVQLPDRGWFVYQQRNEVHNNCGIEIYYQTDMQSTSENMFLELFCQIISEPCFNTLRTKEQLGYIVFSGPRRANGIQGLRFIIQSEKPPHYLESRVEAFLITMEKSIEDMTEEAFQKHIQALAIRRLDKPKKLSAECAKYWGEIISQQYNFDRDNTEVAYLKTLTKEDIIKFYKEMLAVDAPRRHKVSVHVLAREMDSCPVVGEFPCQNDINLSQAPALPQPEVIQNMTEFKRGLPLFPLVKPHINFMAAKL
Description: recombinant IDE activation, cell-free – biochemical, fluorescence polarization, counter-screen for IDE activator project, dose response (AID 588681).

In assay [4] the test system is HEK293. The assay can be described thus: optical interference in Abeta FP readout, dose response, artefact control for IDE activator project, biochemical, fluorescence polarization (AID 588442). The format is functional, cell-based. Particulars: Homo sapiens.
Assay [5] concerns the target T1, Insulin-degrading enzyme. Description: cellular IDE activation of Abeta substrate cleavage – fluorescence polarization, HEK cells, dose response (AID 588439). The format is functional, cell-based.
For assay [6], the target named is T2, DNA dC->dU-editing enzyme APOBEC-3G (Homo sapiens, UniProt Q9HC16). The assay can be described thus: Dose Response confirmation of small molecule APOBEC3G DNA Deaminase Inhibitors via a fluorescence-based single-stranded DNA deaminase assay. [Related pubchem assays (depositor defined):AID493012, AID493028]. Format: functional.
Assay [7] concerns the target T3, DNA dC->dU-editing enzyme APOBEC-3A (Homo sapiens, UniProt P31941). The assay can be described thus: SAR analysis of small molecule inhibitors of APOBEC3A DNA Deaminase via a fluorescence-based single-stranded DNA deaminase assay - Set 2. The format is functional. Particulars: read-out: IC50_Mean.
Assay [8] addresses T3, DNA dC->dU-editing enzyme APOBEC-3A. The assay can be described thus: A3A deaminase inhibition for selectivity – biochemical, dose response (AID 504722). The format is functional.
Assay [9] addresses T2, DNA dC->dU-editing enzyme APOBEC-3G. The assay can be described thus: inhibition of APOBEC3G ssDNA deamination – biochemical, fluorescence, single-stranded DNA substrate, SAR follow-up (AID 602136). The format is functional. Particulars: read-out: IC50_Mean.
Assay [10] addresses T3, DNA dC->dU-editing enzyme APOBEC-3A. The assay can be described thus: SAR analysis of small molecule inhibitors of APOBEC3A DNA Deaminase via a fluorescence-based single-stranded DNA deaminase assay. The format is functional. Particulars: read-out: IC50_Mean.
In assay [11] the target is T2, DNA dC->dU-editing enzyme APOBEC-3G. The assay can be described thus: SAR analysis of small molecule inhibitors of APOBEC3G DNA Deaminase via a fluorescence-based single-stranded DNA deaminase assay - Set 2. The format is functional. Particulars: read-out: IC50_Mean.
In assay [12] the target is T4, Rac GTPase-activating protein 1 (Homo sapiens, UniProt Q9H0H5).
T4 sequence (Q9H0H5 whole entry): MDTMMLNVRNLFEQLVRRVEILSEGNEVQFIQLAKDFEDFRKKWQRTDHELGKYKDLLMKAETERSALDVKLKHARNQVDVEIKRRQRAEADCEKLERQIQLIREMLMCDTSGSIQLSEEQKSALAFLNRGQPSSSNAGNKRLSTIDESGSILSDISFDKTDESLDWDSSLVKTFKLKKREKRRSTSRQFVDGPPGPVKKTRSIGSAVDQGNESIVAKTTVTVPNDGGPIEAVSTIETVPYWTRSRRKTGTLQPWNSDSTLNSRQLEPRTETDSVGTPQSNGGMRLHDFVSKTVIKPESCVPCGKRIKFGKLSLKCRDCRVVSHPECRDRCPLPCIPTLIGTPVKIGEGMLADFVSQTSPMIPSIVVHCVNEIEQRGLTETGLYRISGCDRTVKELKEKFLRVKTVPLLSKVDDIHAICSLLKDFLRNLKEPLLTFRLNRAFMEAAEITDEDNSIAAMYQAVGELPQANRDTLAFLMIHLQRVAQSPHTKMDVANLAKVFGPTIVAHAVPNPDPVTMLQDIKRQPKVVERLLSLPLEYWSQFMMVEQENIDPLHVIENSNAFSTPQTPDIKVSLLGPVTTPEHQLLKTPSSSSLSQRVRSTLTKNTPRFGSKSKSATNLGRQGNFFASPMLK
Description: blockers of MgcRacGAP-driven Rac1 GTP hydrolysis – biochemical, ADP Hunter fluorescence, primary and confirmatory, confirmation (AID 624330). The format is functional.

The target in a further assay is T5, Caspase-3 (Homo sapiens, UniProt P42574).
T5 sequence (P42574 whole entry): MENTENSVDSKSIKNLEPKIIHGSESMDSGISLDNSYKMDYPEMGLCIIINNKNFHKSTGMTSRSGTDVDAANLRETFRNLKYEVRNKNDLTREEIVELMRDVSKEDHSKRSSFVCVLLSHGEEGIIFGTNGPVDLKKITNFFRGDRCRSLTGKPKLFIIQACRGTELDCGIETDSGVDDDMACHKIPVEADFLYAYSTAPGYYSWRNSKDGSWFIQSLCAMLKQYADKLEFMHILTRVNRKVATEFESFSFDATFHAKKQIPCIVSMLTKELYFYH
Description: inhibition of recombinant caspase-3 activity – biochemical, luminescence, set 2, selectivity assay for SENP protease inhibitor project, SAR follow-up (AID 588599). Format: functional.

The target of assay [13] is T6, Sentrin-specific protease 6 (Homo sapiens, UniProt Q9GZR1).
T6 sequence (Q9GZR1 whole entry): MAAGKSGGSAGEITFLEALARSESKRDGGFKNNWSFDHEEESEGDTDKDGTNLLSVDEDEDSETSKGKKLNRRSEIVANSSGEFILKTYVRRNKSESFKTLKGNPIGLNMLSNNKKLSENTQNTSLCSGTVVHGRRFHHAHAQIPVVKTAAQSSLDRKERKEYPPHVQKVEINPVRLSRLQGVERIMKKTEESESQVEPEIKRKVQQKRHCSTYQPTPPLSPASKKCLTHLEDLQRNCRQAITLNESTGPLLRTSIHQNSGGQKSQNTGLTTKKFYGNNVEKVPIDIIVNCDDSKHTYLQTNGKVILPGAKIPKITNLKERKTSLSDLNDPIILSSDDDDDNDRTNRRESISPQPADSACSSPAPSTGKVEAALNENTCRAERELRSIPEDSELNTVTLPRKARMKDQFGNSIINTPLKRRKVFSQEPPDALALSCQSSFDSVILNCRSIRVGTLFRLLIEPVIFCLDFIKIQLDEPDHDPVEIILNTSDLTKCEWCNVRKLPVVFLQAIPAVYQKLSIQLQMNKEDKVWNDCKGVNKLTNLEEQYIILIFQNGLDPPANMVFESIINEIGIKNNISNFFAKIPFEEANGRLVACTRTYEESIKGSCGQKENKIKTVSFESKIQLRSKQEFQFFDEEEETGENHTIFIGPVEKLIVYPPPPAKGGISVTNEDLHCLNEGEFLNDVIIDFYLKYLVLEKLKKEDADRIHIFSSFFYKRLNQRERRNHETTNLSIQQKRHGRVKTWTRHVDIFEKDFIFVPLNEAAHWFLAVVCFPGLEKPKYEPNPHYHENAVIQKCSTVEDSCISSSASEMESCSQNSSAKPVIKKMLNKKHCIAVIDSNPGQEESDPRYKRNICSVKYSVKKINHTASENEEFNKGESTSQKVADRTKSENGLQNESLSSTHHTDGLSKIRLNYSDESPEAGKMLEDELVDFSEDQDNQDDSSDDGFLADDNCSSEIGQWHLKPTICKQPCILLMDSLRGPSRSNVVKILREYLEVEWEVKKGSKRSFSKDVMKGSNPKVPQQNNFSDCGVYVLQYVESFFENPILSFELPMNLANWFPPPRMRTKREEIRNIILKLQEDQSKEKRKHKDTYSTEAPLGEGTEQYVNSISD
The assay can be described thus: inhibition of human SENP6 catalytic domain – biochemical, luminescence, set 2, SAR follow-up (AID 588598). The format is functional.

The target in assay [14] is T7, Sentrin-specific protease 7 (Homo sapiens, UniProt Q9BQF6).
T7 sequence (Q9BQF6 whole entry): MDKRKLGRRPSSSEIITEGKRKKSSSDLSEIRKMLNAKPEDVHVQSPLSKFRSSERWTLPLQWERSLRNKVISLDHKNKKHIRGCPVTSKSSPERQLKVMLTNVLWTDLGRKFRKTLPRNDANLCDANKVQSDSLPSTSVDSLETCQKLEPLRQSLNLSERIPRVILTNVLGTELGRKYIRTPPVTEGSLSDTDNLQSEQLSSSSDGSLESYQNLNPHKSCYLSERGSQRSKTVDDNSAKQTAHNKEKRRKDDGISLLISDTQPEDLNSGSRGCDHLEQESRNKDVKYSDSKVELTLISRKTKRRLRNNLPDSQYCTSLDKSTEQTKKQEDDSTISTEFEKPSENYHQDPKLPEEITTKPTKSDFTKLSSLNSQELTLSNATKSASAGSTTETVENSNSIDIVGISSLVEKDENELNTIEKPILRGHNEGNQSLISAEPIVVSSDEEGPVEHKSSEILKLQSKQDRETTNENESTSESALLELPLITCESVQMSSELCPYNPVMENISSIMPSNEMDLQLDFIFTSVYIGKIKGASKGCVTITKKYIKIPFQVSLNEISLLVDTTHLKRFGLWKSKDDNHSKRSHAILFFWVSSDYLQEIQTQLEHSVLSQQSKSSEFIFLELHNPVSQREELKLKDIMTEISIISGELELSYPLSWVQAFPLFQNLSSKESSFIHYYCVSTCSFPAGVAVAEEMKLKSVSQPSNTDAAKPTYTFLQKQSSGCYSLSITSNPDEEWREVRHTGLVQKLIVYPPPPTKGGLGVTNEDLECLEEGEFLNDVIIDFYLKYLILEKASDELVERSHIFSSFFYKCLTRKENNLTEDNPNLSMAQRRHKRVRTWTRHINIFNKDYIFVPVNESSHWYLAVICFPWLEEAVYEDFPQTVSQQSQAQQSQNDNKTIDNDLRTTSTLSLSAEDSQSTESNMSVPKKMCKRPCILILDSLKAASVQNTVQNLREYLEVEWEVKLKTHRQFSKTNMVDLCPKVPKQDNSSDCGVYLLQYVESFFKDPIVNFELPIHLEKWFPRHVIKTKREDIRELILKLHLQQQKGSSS
Description: inhibition of human SENP7 cleavage activity – biochemical, luminescence, set 2, SAR follow-up (AID 588600). The format is functional.

For assay [15], the target named is T8, Sentrin-specific protease 8 (Homo sapiens, UniProt Q96LD8).
T8 sequence (Q96LD8 whole entry): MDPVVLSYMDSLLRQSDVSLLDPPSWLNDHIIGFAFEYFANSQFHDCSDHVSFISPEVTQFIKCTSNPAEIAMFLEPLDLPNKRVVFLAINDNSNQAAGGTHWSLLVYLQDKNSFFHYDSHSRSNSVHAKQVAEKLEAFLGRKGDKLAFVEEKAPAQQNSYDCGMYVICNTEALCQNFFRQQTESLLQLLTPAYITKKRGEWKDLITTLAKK
Description: inhibition of sentrin protease 8 – biochemical, luminescence, set 2, SAR follow-up (AID 588601). Format: functional.

T3 sequence (P31941 whole entry): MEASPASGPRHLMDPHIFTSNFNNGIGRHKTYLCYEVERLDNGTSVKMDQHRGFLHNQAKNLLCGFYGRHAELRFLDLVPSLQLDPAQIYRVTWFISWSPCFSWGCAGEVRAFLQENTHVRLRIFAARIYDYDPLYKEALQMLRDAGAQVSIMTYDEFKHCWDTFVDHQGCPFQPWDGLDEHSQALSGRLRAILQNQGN
T2 sequence (Q9HC16 whole entry): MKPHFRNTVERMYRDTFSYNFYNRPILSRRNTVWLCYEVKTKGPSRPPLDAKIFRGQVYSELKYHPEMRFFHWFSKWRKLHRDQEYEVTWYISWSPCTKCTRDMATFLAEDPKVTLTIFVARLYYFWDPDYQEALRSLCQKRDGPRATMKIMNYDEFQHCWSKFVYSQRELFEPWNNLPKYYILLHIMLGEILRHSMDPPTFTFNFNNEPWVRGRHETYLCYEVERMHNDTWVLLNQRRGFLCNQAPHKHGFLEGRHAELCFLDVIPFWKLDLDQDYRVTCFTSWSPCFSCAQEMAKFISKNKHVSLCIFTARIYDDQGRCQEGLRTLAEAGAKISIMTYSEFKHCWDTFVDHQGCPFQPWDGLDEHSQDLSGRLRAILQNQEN

Turning to `COc1cc(C2Nc3cccc4cccc(c34)N2)ccc1O`, the CC50 in assay [1] is 32.1 µM (active). The IC50 in the assay with HEK293 [2] is > 89.3 µM (inactive). In addition, the EC50 at Insulin-degrading enzyme [3], in the assay on HEK293 [4] and on Insulin-degrading enzyme [5] was > 54.7 µM (inactive) in each case.
Consider `COc1ccc(NCC(O)COc2ccc(C(C)(C)C)cc2)cc1` (centres undefined), for which, in the assay on HEK293 [2], the IC50 was 49.1 µM (inactive). The EC50 at Insulin-degrading enzyme [3], in the assay with HEK293 [4] and at Insulin-degrading enzyme [5] was > 54.7 µM (inactive) throughout.
For the molecule `Cc1ccc(-c2csc3n[nH]c(=S)n23)cc1`, the IC50 was 1.35 µM (active) in [6]; > 99 µM (inactive) in [7]; > 100 µM (inactive) in assay [8]; 3.48 µM (active) in [9]; > 99 µM (inactive) in assay [10]; > 99 µM (inactive) in assay [11]. Besides, in assay [12], the IC50 was 58.1 µM (active).
`CNC(=O)C1Cc2ccccc2N1C(=O)C(=O)c1c(C)[nH]c2ccccc12` (centres undefined): the IC50 (at Caspase-3; in [13]; in assay [14]; in assay [15]) was > 99 µM (inactive) throughout.
With `CN(C)C(=O)C(=O)c1c(-c2ccccc2)[nH]c2ccc(Cl)cc12`, the IC50 (on Caspase-3; in assay [13]; in assay [14]; in assay [15]) was > 99 µM (inactive) throughout.

Usually CC50 stands for the concentration at which the toxic effect on the cells reaches its halfway point. What is called EC50 is the concentration giving half of the maximal effect.
